From publication PMC4774911, “Biochemical Screening of Five Protein Kinases from Plasmodium falciparum against 14,000 Cell-Active Compounds” (PLoS ONE, 2016)
Like-named read-outs stand apart in the source and are kept apart here.

What was measured:
[1] = tested on: 3D7 PFLDH; design: method as in downloaded from ChEMBL; conditions: ref downloaded from ChEMBL; cited from earlier work
[2] = tested on: HepG2 cells; conditions: HEPG2; ref downloaded from ChEMBL; cited from earlier work
[3] = tested on: P. falciparum 3D7 cells; conditions: 3D7; ref downloaded from ChEMBL; cited from earlier work
[4] = target: T1, Plasmodium falciparum calcium-dependent protein kinase 1 (CDPK1) (Plasmodium falciparum, UniProt P62344); test: CDPK1 Kinase-Glo ATP-consumption screen and dose-response; format: biochemical
T1 construct: 6-Histidine (N); made in house
Method in brief: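 ATP consumption by recombinant P. falciparum CDPK4 or CDPK1 measured as residual ATP by Kinase-Glo luminescence, with 40 μM Syntide-2 substrate and 90 min incubation stopped with 5 mM EGTA. Single-point screen at 1 μM final, followed by dose-response; no-substrate wells as negative control.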

[5] = tested on: DD2; design: method as in downloaded from ChEMBL; conditions: ref downloaded from ChEMBL; cited from earlier work
[6] = hits below 1 uM, read-out: CDPK1 IC50

T1 sequence (P62344 whole entry): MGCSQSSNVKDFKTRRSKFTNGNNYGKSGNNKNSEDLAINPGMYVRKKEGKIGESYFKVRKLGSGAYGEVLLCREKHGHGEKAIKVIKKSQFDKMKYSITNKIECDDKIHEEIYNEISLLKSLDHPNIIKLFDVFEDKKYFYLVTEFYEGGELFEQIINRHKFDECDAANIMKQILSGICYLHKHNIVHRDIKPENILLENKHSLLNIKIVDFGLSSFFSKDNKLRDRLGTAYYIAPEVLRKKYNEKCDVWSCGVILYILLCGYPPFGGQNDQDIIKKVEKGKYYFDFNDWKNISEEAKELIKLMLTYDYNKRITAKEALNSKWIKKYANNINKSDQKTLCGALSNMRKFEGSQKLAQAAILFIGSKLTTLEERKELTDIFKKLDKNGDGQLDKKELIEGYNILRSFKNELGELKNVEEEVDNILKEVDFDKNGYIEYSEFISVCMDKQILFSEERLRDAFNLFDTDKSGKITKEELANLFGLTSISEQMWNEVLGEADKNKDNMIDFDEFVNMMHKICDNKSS

Row | Structure (SMILES) | PCT_INHIB_3D7_PFLDH [1] | PCT_INHIB_HEPG2 [2] | PCT_IHB_3D7 [3] | pXC50_3D7 [3] | IC50 [4] | PCT_INHB_DD2 [5] | IC50 [4, 6]
1 | COc1ccc(-c2cnc3ccc(NCCCO)nn23)cc1OC [TCMDC-136683] | 0 | 9 | 98 | 6.172 | 0.361 µM | 90 | 
2 | COc1ccc(-c2cnc3ccc(NC4CCC(O)CC4)nn23)cn1 (stereo not drawn) [TCMDC-136694] | 4 | 54 | 98 | 6.146 |  | 73 | 0.379 µM
3 | Cl.Oc1cccc(Nc2ccnc3cc(-c4ccncc4)ccc23)c1 [TCMDC-138292] | 1 | 8 | 100 | 5.98 |  | 99 | 0.884 µM
4 | Cc1nc(-c2cccc(Nc3ccnc4cc(-c5nccs5)ccc34)c2)no1.Cl [TCMDC-138334] | 0 | 37 | 99 | 6.492 |  | 90 | 0.191 µM
5 | Cc1nnc(-c2cccc(Nc3ccnc4cc(-c5nccs5)ccc34)c2)o1.Cl [TCMDC-138335] | 0 | 38 | 95 | 6.199 |  | 89 | 0.186 µM
6 | Oc1cc(Nc2ccnc3cc(I)ccc23)c(F)cc1Cl [TCMDC-138386] | 0 | 0 | 92 | 6.08 |  | 77 | 0.282 µM
7 | CN(C)CCN(C)Cc1ccc(-c2ccc3c(Nc4ccc(Cl)cc4F)ccnc3c2)o1 [TCMDC-138388] | 1 | 20 | 100 | 6.444 |  | 76 | 0.604 µM
8 | CN(C)Cc1ccc(-c2ccc3c(Nc4ccc(Cl)cc4F)ccnc3c2)o1 [TCMDC-138389] | 0 | 13 | 100 | 6.6173 |  | 99 | 0.185 µM
9 | CN(C)CCNCc1ccc(-c2ccc3c(Nc4ccc(Cl)cc4F)ccnc3c2)o1 [TCMDC-138391] | 0 | 14 | 99 | 6.681 |  | 100 | 0.374 µM
10 | CN1CCN(Cc2ccc(-c3ccc4c(Nc5ccc(Cl)cc5F)ccnc4c3)o2)CC1 [TCMDC-138395] | 0 | 47 | 100 | 6.811 |  | 100 | 0.406 µM
11 | Fc1cc(Cl)ccc1Nc1ccnc2cc(-c3ccc(CNCCN4CCOCC4)o3)ccc12 [TCMDC-138397] | 0 | 13 | 100 | 6.5582 |  | 100 | 0.383 µM
12 | c1ccc(Oc2ccc(Nc3ccnc4cc(-c5ccc(CNCCN6CCOCC6)o5)ccc34)cc2)cc1 [TCMDC-138398] | 0 | 20 | 99 | 6.358 |  | 99 | 0.435 µM
13 | CN(C)CCNCc1ccc(-c2ccc3c(Nc4ccc(Oc5ccccc5)cc4)ccnc3c2)o1 [TCMDC-138399] | 2 | 19 | 100 | 6.553 |  | 99 | 0.681 µM
14 | CN(C)CCN(C)Cc1ccc(-c2ccc3c(Nc4ccc(Oc5ccccc5)cc4)ccnc3c2)o1 [TCMDC-138400] | 0 | 5 | 100 | 6.746 |  | 100 | 0.718 µM
15 | CN(C)CCN(C)Cc1nc(-c2ccc3c(Nc4ccc(Oc5ccccc5)cc4)ccnc3c2)cs1 [TCMDC-138408] | 0 | 27 | 100 | 6.673 |  | 100 | 0.915 µM
16 | CN(C)CCNCc1nc(-c2ccc3c(Nc4ccc(Oc5ccccc5)cc4)ccnc3c2)cs1 [TCMDC-138410] | 6 | 8 | 100 | 6.1332 |  | 100 | 0.887 µM
17 | CN(C)Cc1ccc(-c2ccc3c(Nc4ccc(Oc5ccccn5)cc4)ccnc3c2)o1 [TCMDC-138425] | 1 | 18 | 100 | 6.798 |  | 100 | 0.513 µM
18 | COCCNCc1cccc(-c2ccc3c(Nc4cc(O)c(Cl)cc4F)ccnc3c2)c1 [TCMDC-138429] | 7 | 0 | 100 | 6.944 |  | 79 | 0.436 µM
19 | CN1CCN(Cc2cccc(-c3ccc4c(Nc5cc(O)c(Cl)cc5F)ccnc4c3)c2)CC1 [TCMDC-138430] | 4 | 0 | 100 | 6.114 |  | 100 | 0.762 µM
20 | CS(=O)(=O)CCNCc1cccc(-c2ccc3c(Nc4cc(O)c(Cl)cc4F)ccnc3c2)c1 [TCMDC-138435] | 0 | 9 | 100 | 6.595 |  | 100 | 0.071 µM
21 | COCCNCc1ncsc1-c1ccc2c(Nc3cc(O)c(Cl)cc3F)ccnc2c1 [TCMDC-138441] | 0 | 0 | 100 | 6.262 |  | 92 | 0.15 µM
22 | CN1CCN(Cc2ccc(-c3ccc4c(Nc5cc(O)c(Cl)cc5F)ccnc4c3)o2)CC1 [TCMDC-138446] | 0 | 2 | 100 | 6.961 |  | 99 | 0.131 µM
23 | Cc1ccc(O)cc1Nc1ccnc2cc(-c3cccc(CNCCS(C)(=O)=O)c3)ccc12 [TCMDC-138472] | 2 | 9 | 99 | 6.078 |  | 100 | 0.125 µM
24 | COCCNCc1cccc(-c2ccc3c(Nc4ccc(Oc5ccccc5)cc4)ccnc3c2)c1 [TCMDC-138478] | 2 | 25 | 100 | 6.287 |  | 99 | 0.979 µM
25 | COCCNCc1cccc(-c2ccc3c(Nc4ccc(Oc5cccnc5)cc4)ccnc3c2)c1 [TCMDC-138487] | 0 | 58 | 100 | 6.749 |  | 99 | 0.913 µM
26 | CS(=O)(=O)CCNCc1cccc(-c2ccc3c(Nc4ccc(Oc5cccnc5)cc4)ccnc3c2)c1 [TCMDC-138488] | 4 | 27 | 100 | 6.847 |  | 99 | 0.966 µM
